{"source": "patent US8629330B2", "about": "“Methods and compositions for the inhibition of meristematic growth on cucurbit rootstock” (Syngenta Participations AG, priority 2012, dated 2014)", "key": {"[1]": {"system": "shoot apical meristem of cucurbit rootstock plant", "assay": "Inhibition of the shoot apical meristem of cucurbit rootstock", "format": "in vivo", "details": "fatty alcohols about 2.3% (v/v); Oryzalin about 10 mM; sulfuric acid about 18N to about 9N; applied to shoot apical meristem", "excerpt": "Rootstock plants, bottle gourd (Lagenaria siceraria var. ‘Emphasis’) or interspecific hybrid squash (C. maxima×C. moschata var. ‘Carnivor’), were sown in Fafard 3-b fertilizer-free mix and allowed to germinate. At the point when the cotyledons unfolded, (approx. 5-10 days after seeding) a droplet of a composition comprising fatty alcohols was applied to the shoot apical meristem of the seedling, between the cotyledons, so that the meristem was covered with solution. […] The droplet volume was 20 to 500 μL and was applied with a pipette (20-200 μL or 1000 μL volume capability, using plastic tips). Seedlings were watered prior to treatment, to avoid needing to water post-treatment, which can dilute or wash away the fatty alcohol solution and prevent burnout of the shoot apical meristem. The treated rootstock seedlings can then be grafted to the appropriate scion at about 1 to 21 days post-treatment. In this case, the rootstock seedling was grafted to a cucurbit scion at about 24 hours after the rootstock shoot apical meristem was first contacted with the fatty alcohol composition.\nMaleic hydrazide (21.7%; Royal MH-30®; Chemtura Corp., Middlebury, Conn.) at a concentration of about 90 mg/ml was applied to the shoot apical meristem of rootstock plant. The treated rootstock plants were incubated for about 24 hours prior to grafting to a scion."}, "[2]": {"system": "cucurbit rootstock seedling grafted to watermelon or melon scion", "description": "Grafting can be performed at about 1-21 days after a rootstock shoot apical meristem is treated with a fatty alcohol solution. Possible grafting methods include the following: 1) hole-insertion, in which the rootstock meristem is removed, a hole is punched into the old meristematic area with a bamboo needle, and the scion (cut at the end to both sharpen and expose vascular cambium tissue) is inserted into the prepared rootstock; and 2) one cotyledon, where the rootstock's meristem area and one cotyledon are removed, and the cut scion hypocotyl is adjoined to the resulting wound, stabilized with a clip, and allowed to heal. Once grafted, the plants are placed for approximately seven days in a healing chamber under high humidity for about the first 1-3 days, and then gradually decreasing humidity for the remaining days. After about seven days of healing, the grafted plants can be removed from the chamber and planted.\nIn this case, the cucurbit rootstock seedling as described in Example 1 was grafted to a cucurbit scion, watermelon (Citrullus lanatus subsp. vulgaris cv. ‘Tri-X-313’) or melon (Cucumis melo cv. ‘Athena’) at about 24 hours after the rootstock shoot apical meristem was first contacted with the fatty alcohol composition. Seven days were allowed for the graft to heal. […]"}}}
{"smiles": "O=S(=O)(O)O", "note": "[sulfuric acid, Sulfuric acid]", "values": [{"measurement": "effect on rootstock shoot apical meristem", "setting": "[1]", "result": "death of the shoot apical meristem"}, {"measurement": "successful grafts out of 2016 attempted grafts", "setting": "[2]; grafted about 24 hours after treatment, fatty alcohols about 2.3% (v/v), maleic hydrazide about 90 mg/ml, Oryzalin about 10 mM, sulfuric acid about 18N to about 9N", "result": "none were successful"}, {"measurement": "effect on grafting tissues", "setting": "[2]; sulfuric acid about 18N to about 9N applied to shoot apical meristem", "result": "the grafting tissues were also destroyed"}]}
